From patent US6921824B1, “Ruthenium dimeric complexes suitable as antimetastatic and antineoplastic agents” (priority 1999, dated 2005) come the findings set out here.

This experiment has as its system MCa mammary carcinoma. As to the kind of experiment: Post-surgical treatment: inhibition of lung metastases at advanced stage of growth, MCa mammary carcinoma. It counts as in vivo, CBA mice. The note with it: for Lung metastases Number % T/C / Lung metastases weight % T/C: Treated/Control; for Lung metastases Number / Lung metastases Weight: evaluated day 28; for Growth of the lung metastases (in words): post-surgical treatment at LD0.05 dosages. On the procedure: In vivo testing of the activity of the compounds according to the present invention in mice affected by MCa mammary carcinoma: inhibition activity of lung metastases at an advanced stage of growth.
Five groups of CBA kin female mice weighing 23±3 g were inoculated with […] viable MCa mammary carcinoma cells (as determined by trypan blue exclusion) in 0.05 ml Dulbecco's pH 7.4 buffered calcium- and magnesium-free solution (PBS) by intramuscular injection with a sterile insulin syringe. The tumour cells were derived from donors of the same strain injected with the same tumour cells and with the same procedures 2 weeks before. The suspension of tumour cells was prepared in PBS by mechanical mincing of the tumour mass obtained from donor mice, and further removal of tissue debris and cells was obtained, respectively, by filtration through a double layer of sterile gauze and centrifugation at 250× g for 10 minutes. Kin animals were obtained from a colony from Chester Beatthy from London (UK) and were grown in the University of Trieste animal house accordingly to the procedures accepted for the rearing of kin animals. The MCa mammary carcinoma tumour cell-line was derived from a stock, stored in liquid nitrogen, of tumour cells originally obtained from Rudjer Boskovic Institute of Zagreb (HR).
On day 14 since tumour cells implantation, the primary tumour was surgically removed, after general anesthesia of the animals by intraperitoneal injection of 125 mg/kg of Ketamine.
From day 15 to day 20 after tumour cells implantation, the five mice groups were treated, intraperitoneally with a sterile insulin syringe, respectively with: • Group 1 Control (7 animals): 10 ml/kg of body weight/day of sterile and pyrogen-free physiological solution; • Group 2 (7 animals): 28 mg/kg of body weight/day of the compound as prepared in Example 4 in sterile and pyrogen-free physiological solution; • Group 3 (7 animals): 28 mg/kg of body weight/day of the compound as prepared in Example 7 in sterile and pyrogen-free physiological solution; • Group 4 (7 animals): 51 mg/kg of body weight/day of the compound as prepared in Example 8 in sterile and pyrogen-free physiological solution; • Group 5 (7 animals): 52 mg/kg of body weight/day of the compound as prepared in Example 10 in sterile and pyrogen-free physiological solution.
The dosages corresponding to the LD0.05, calculated separately in animals of the same strain and gender and having the same body weight, was administered intraperitoneally for 6 consecutive days, according to the method of Lichtfield and Wilcoxon, and with an observation time of 10 days since last dose.
On day 28 since tumour cells implantation, the mice were sacrificed by cervical dislocation for the evaluation of lung metastases. The lungs were abducted from the animals immediately after sacrifice, divided in single lobes that were soon examined with a low-magnification microscope equipped with a graduated ocular-grid for the measurement of metastases size, where the orthogonal axes a and b (a≦b) were identified. The metastases were then classified by size and the metastatic tumour weight for each animal was calculated as the sum of each single metastasis weight, each of them considered as a rotation solid developed around the above mentioned axes according to the formula (π/6)·a^2·b. The experimental data obtained were then processed by appropriate statistical tests.
The results are reported in Table 2, where the number and weight of lung metastases obtained in groups of animals treated with the compounds of the present invention with respect to the group of controls treated with sterile and pyrogen-free physiological solution, are shown.

[1] abbreviates: 52 mg/kg of body weight/day i.p. day 15-20, post-surgical.
Where [2] appears, read: 28 mg/kg of body weight/day i.p. day 15-20, post-surgical.
Where [3] appears, read: 51 mg/kg of body weight/day i.p. day 15-20, post-surgical.

As to `C[SH](C)(=O)[Ru-]([Cl])([Cl])([Cl])([Cl])[n+]1ccc(CCc2cc[n+]([Ru-]([Cl])([Cl])([Cl])([Cl])[SH](C)(C)=O)cc2)cc1.[Na+].[Na+]` [Example 10, [Na]2[trans-RuCl4(Me2SO)]2(μ-etbipy)], the “Growth of the lung metastases (in words)” value is reported as “reduce significantly”. Also, under setting [1], the “Lung metastases Number % T/C” value is listed as 53%, the “Lung metastases weight % T/C” value turned out to be 29%, the “Lung metastases Number” value is 27.8 ± 7.8 and the “Lung metastases Weight” value amounted to 71 ± 20 mg.
On to `C[SH](C)(=O)[Ru-]([Cl])([Cl])([Cl])([Cl])[n+]1ccc[n+]([Ru-]([Cl])([Cl])([Cl])([Cl])[SH](C)(C)=O)c1.[Na+].[Na+]` [Example 7, [Na]2[trans-RuCl4(Me2SO)]2(μ-pym)], for which the “Growth of the lung metastases (in words)” value was “reduce significantly”. Besides, under setting [2], the “Lung metastases Number % T/C” value is recorded as 78%, the “Lung metastases weight % T/C” value was 44%, the “Lung metastases Number” value is listed as 40.4 ± 7.4 and the “Lung metastases Weight” value was 107 ± 31 mg.
Turning to “[Na]2[trans-RuCl4(Me2SO)]2(μ-bipy) [Example 8]”, the “Growth of the lung metastases (in words)” value was “reduce significantly”. Besides, under setting [3], the “Lung metastases Number % T/C” value is 40%, the “Lung metastases weight % T/C” value is recorded as 31%, the “Lung metastases Number” value is 20.6 ± 7.3 and the “Lung metastases Weight” value is 76 ± 31 mg.
For `C[SH](C)(=O)[Ru-]([Cl])([Cl])([Cl])([Cl])[n+]1cc[n+]([Ru-]([Cl])([Cl])([Cl])([Cl])[SH](C)(C)=O)cc1.[Na+].[Na+]` [Example 4, [Na]2[trans-RuCl4(Me2SO)]2(μ-pyz)], the “Growth of the lung metastases (in words)” value is “reduce significantly”. Further, under setting [2], the “Lung metastases Number % T/C” value is reported as 80%, the “Lung metastases weight % T/C” value is given as 39%, the “Lung metastases Number” value worked out at 41.4 ± 8.0 and the “Lung metastases Weight” value is given as 96 ± 20 mg.
